In the NIST ThermoML archive (doi:10.1016/j.fluid.2008.03.004):

Test: xn = mol fraction of the nth substance listed
Settings: 101 kPa, Liquid; for speed of sound: Sing-around technique in a fixed-path interferometer

CCOC(C)(C)C [2-ethoxy-2-methylpropane] + Cc1ccc(C)cc1
Settings	mass density [kg/m3]	speed of sound [m/s]
288.15 K, x1 = 0.062	857.461	1332.5
288.15 K, x1 = 0.123	849.969	1315.3
288.15 K, x1 = 0.238	836.401	1283.6
288.15 K, x1 = 0.35	822.903	1252.6
288.15 K, x1 = 0.455	810.328	1223.7
288.15 K, x1 = 0.557	798.162	1195.8
288.15 K, x1 = 0.654	786.517	1169.2
288.15 K, x1 = 0.746	775.593	1144.4
288.15 K, x1 = 0.834	764.97	1120.8
288.15 K, x1 = 0.902	756.828	1102.5
288.15 K, x1 = 0.959	749.995	1087.2
288.15 K, x1 = 1	744.955	1076.4
290.65 K, x1 = 0.062	855.329	1321.8
290.65 K, x1 = 0.123	847.837	1304.4
290.65 K, x1 = 0.238	834.222	1272.7
290.65 K, x1 = 0.35	820.676	1241.5
290.65 K, x1 = 0.455	808.058	1212.6
290.65 K, x1 = 0.557	795.855	1184.6
290.65 K, x1 = 0.654	784.174	1158
290.65 K, x1 = 0.746	773.205	1133.1
290.65 K, x1 = 0.834	762.549	1109.4
290.65 K, x1 = 0.902	754.379	1091
290.65 K, x1 = 0.959	747.527	1076
290.65 K, x1 = 1	742.482	1065.1
293.15 K, x1 = 0.062	853.16	1311
293.15 K, x1 = 0.123	845.64	1293.7
293.15 K, x1 = 0.238	831.974	1261.7
293.15 K, x1 = 0.35	818.389	1230.6
293.15 K, x1 = 0.455	805.723	1201.5
293.15 K, x1 = 0.557	793.481	1173.4
293.15 K, x1 = 0.654	781.767	1146.8
293.15 K, x1 = 0.746	770.753	1121.7
293.15 K, x1 = 0.834	760.076	1098.1
293.15 K, x1 = 0.902	751.872	1079.6
293.15 K, x1 = 0.959	745.006	1064.5
293.15 K, x1 = 1	739.947	1053.7
295.65 K, x1 = 0.062	850.963	1300.3
295.65 K, x1 = 0.123	843.426	1282.9
295.65 K, x1 = 0.238	829.705	1250.9
295.65 K, x1 = 0.35	816.087	1219.6
295.65 K, x1 = 0.455	803.381	1190.5
295.65 K, x1 = 0.557	791.102	1162.2
295.65 K, x1 = 0.654	779.339	1135.5
295.65 K, x1 = 0.746	768.276	1110.5
295.65 K, x1 = 0.834	757.573	1086.7
295.65 K, x1 = 0.902	749.342	1068.2
295.65 K, x1 = 0.959	742.457	1053.1
295.65 K, x1 = 1	737.374	1042.2
298.15 K, x1 = 0.062	848.771	1289.8
298.15 K, x1 = 0.123	841.223	1272.5
298.15 K, x1 = 0.238	827.443	1240.2
298.15 K, x1 = 0.35	813.789	1208.9
298.15 K, x1 = 0.455	801.037	1179.6
298.15 K, x1 = 0.557	788.722	1151.4
298.15 K, x1 = 0.654	776.911	1124.5
298.15 K, x1 = 0.746	765.812	1099.4
298.15 K, x1 = 0.834	755.077	1075.5
298.15 K, x1 = 0.902	746.808	1057
298.15 K, x1 = 0.959	739.904	1041.9
298.15 K, x1 = 1	734.806	1031
300.65 K, x1 = 0.062	846.559	1279.4
300.65 K, x1 = 0.123	839.002	1262.1
300.65 K, x1 = 0.238	825.16	1229.7
300.65 K, x1 = 0.35	811.468	1198.2
300.65 K, x1 = 0.455	798.683	1168.9
300.65 K, x1 = 0.557	786.313	1140.5
300.65 K, x1 = 0.654	774.466	1113.6
300.65 K, x1 = 0.746	763.325	1088.4
300.65 K, x1 = 0.834	752.561	1064.5
300.65 K, x1 = 0.902	744.252	1045.9
300.65 K, x1 = 0.959	737.326	1030.6
300.65 K, x1 = 1	732.225	1019.8
303.15 K, x1 = 0.062	844.378	1269.2
303.15 K, x1 = 0.123	836.793	1251.8
303.15 K, x1 = 0.238	822.9	1219.2
303.15 K, x1 = 0.35	809.173	1187.7
303.15 K, x1 = 0.455	796.342	1158.2
303.15 K, x1 = 0.557	783.933	1129.8
303.15 K, x1 = 0.654	772.039	1102.8
303.15 K, x1 = 0.746	760.846	1077.5
303.15 K, x1 = 0.834	750.063	1053.5
303.15 K, x1 = 0.902	741.716	1034.8
303.15 K, x1 = 0.959	734.772	1019.6
303.15 K, x1 = 1	729.647	1008.6
305.65 K, x1 = 0.062	842.155	1258.9
305.65 K, x1 = 0.123	834.557	1241.4
305.65 K, x1 = 0.238	820.611	1208.8
305.65 K, x1 = 0.35	806.841	1177.1
305.65 K, x1 = 0.455	793.966	1147.5
305.65 K, x1 = 0.557	781.512	1119
305.65 K, x1 = 0.654	769.583	1091.9
305.65 K, x1 = 0.746	758.333	1066.6
305.65 K, x1 = 0.834	747.515	1042.5
305.65 K, x1 = 0.902	739.137	1023.8
305.65 K, x1 = 0.959	732.166	1008.5
305.65 K, x1 = 1	727.038	997.52
308.15 K, x1 = 0.062	839.962	1248.7
308.15 K, x1 = 0.123	832.343	1231.1
308.15 K, x1 = 0.238	818.339	1198.4
308.15 K, x1 = 0.35	804.54	1166.7
308.15 K, x1 = 0.455	791.627	1137.1
308.15 K, x1 = 0.557	779.104	1108.3
308.15 K, x1 = 0.654	767.142	1081.2
308.15 K, x1 = 0.746	755.854	1055.7
308.15 K, x1 = 0.834	745.002	1031.6
308.15 K, x1 = 0.902	736.575	1012.8
308.15 K, x1 = 0.959	729.598	997.44
308.15 K, x1 = 1	724.443	986.39
310.65 K, x1 = 0.062	837.759	1238.5
310.65 K, x1 = 0.123	830.128	1220.9
310.65 K, x1 = 0.238	816.051	1188
310.65 K, x1 = 0.35	802.206	1156.1
310.65 K, x1 = 0.455	789.243	1126.3
310.65 K, x1 = 0.557	776.705	1097.6
310.65 K, x1 = 0.654	764.679	1070.4
310.65 K, x1 = 0.746	753.335	1044.9
310.65 K, x1 = 0.834	742.455	1020.6
310.65 K, x1 = 0.902	733.99	1001.8
310.65 K, x1 = 0.959	726.994	986.36
310.65 K, x1 = 1	721.826	975.42
313.15 K, x1 = 0.062	835.532	1228.3
313.15 K, x1 = 0.123	827.882	1210.7
313.15 K, x1 = 0.238	813.765	1177.8
313.15 K, x1 = 0.35	799.872	1145.7
313.15 K, x1 = 0.455	786.866	1115.8
313.15 K, x1 = 0.557	774.27	1087
313.15 K, x1 = 0.654	762.204	1059.7
313.15 K, x1 = 0.746	750.812	1034.1
313.15 K, x1 = 0.834	739.901	1009.8
313.15 K, x1 = 0.902	731.4	990.86
313.15 K, x1 = 0.959	724.383	975.56
313.15 K, x1 = 1	719.179	964.53
315.65 K, x1 = 0.062	833.306	1218.3
315.65 K, x1 = 0.123	825.641	1200.6
315.65 K, x1 = 0.238	811.445	1167.5
315.65 K, x1 = 0.35	797.52	1135.4
315.65 K, x1 = 0.455	784.471	1105.4
315.65 K, x1 = 0.557	771.824	1076.4
315.65 K, x1 = 0.654	759.71	1049.1
315.65 K, x1 = 0.746	748.28	1023.4
315.65 K, x1 = 0.834	737.319	998.93
315.65 K, x1 = 0.902	728.791	980.02
315.65 K, x1 = 0.959	721.749	964.74
315.65 K, x1 = 1	716.527	953.54
318.15 K, x1 = 0.062	831.175	1208.1
318.15 K, x1 = 0.123	823.476	1190.2
318.15 K, x1 = 0.238	809.233	1157
318.15 K, x1 = 0.35	795.26	1124.9
318.15 K, x1 = 0.455	782.164	1094.8
318.15 K, x1 = 0.557	769.47	1065.8
318.15 K, x1 = 0.654	757.309	1038.5
318.15 K, x1 = 0.746	745.827	1012.6
318.15 K, x1 = 0.834	734.831	988.25
318.15 K, x1 = 0.902	726.264	969.29
318.15 K, x1 = 0.959	719.189	953.77
318.15 K, x1 = 1	713.96	942.67
320.65 K, x1 = 0.062	828.907	1197.9
320.65 K, x1 = 0.123	821.186	1180
320.65 K, x1 = 0.238	806.89	1146.7
320.65 K, x1 = 0.35	792.863	1114.4
320.65 K, x1 = 0.455	779.723	1084.3
320.65 K, x1 = 0.557	766.974	1055.2
320.65 K, x1 = 0.654	754.765	1027.7
320.65 K, x1 = 0.746	743.239	1001.8
320.65 K, x1 = 0.834	732.197	977.45
320.65 K, x1 = 0.902	723.589	958.35
320.65 K, x1 = 0.959	716.494	942.81
320.65 K, x1 = 1	711.25	931.73
323.15 K, x1 = 0.062	826.773	1187.7
323.15 K, x1 = 0.123	819.029	1169.7
323.15 K, x1 = 0.238	804.681	1136.3
323.15 K, x1 = 0.35	790.599	1103.9
323.15 K, x1 = 0.455	777.399	1073.7
323.15 K, x1 = 0.557	764.613	1044.6
323.15 K, x1 = 0.654	752.347	1017.1
323.15 K, x1 = 0.746	740.77	991.05
323.15 K, x1 = 0.834	729.685	966.6
323.15 K, x1 = 0.902	721.039	947.53
323.15 K, x1 = 0.959	713.92	931.92
323.15 K, x1 = 1	708.642	920.73
